According to patent publication US20120122679A1, “MESOIONIC PESTICIDES” (E. I. Du Pont De Nemours and Company, priority 2009, published 2012):

Tested on: green peach aphid (Myzus persicae)
Assay: Test F: control of green peach aphid on radish plant, contact and/or systemic
Format: in vivo
Conditions: sprayed at 50 ppm; assessed after 6 days
Procedure: Test compounds were formulated using a solution containing 10% acetone, 90% water and 300 ppm X-77® Spreader Lo-Foam Formula non-ionic surfactant containing alkylarylpolyoxyethylene, free fatty acids, glycols and isopropanol (Loveland Industries, Inc. Greeley, Colorado, USA). The formulated compounds were applied in 1 mL of liquid through a SUJ2 atomizer nozzle with ⅛ JJ custom body (Spraying Systems Co. Wheaton, Ill., USA) positioned 1.27 cm (0.5 inches) above the top of each test unit. Test compounds were sprayed at 250 and/or 50 ppm, and replicated three times. After spraying of the formulated test compound, each test unit was allowed to dry for 1 h and then a black, screened cap was placed on top. The test units were held for 6 days in a growth chamber at 25° C. and 70% relative humidity. Plant feeding damage was then visually assessed based on foliage consumed.
For evaluating control of green peach aphid (Myzus persicae) through contact and/or systemic means, the test unit consisted, of a small open container with a 12-15-day-old radish plant inside. […]
Test compounds were formulated and sprayed at 250 ppm and/or 50 ppm as described for Test A. The applications were replicated three times. […] Each test unit was then visually assessed for insect mortality.

`O=c1c(SC(F)(F)F)c([O-])[n+](Cc2cnc(Cl)s2)c2ccccn12` [Compound 102] was tested, and the “mortality (at least 80% mortality)” value was “at least 80%”.
